US4309432A, “Compositions for treating glaucoma containing a carbostyril” (priority 1979, dated 1982)
Several values for one entry are separate records, joined by “and”; a condition that tells them apart may be missing. Equal values may be shown once. Where a name gives a salt, the structure may show the parent alone.

What was measured:
[1] = tested on: intraocular pressure; experiment: Efficacy Test 3: intraocular pressure in normal rabbits (Alcon pneumatic tonometer); type: in vivo, rabbit (male New Zealand Albino); details: for Intraocular pressure 30 minutes after instillation, average / Intraocular pressure 1 hour after instillation, average / Intraocular pressure 30 minutes after instillation / Intraocular pressure 1 hour after instillation: 1% (W/V), 100 μl
Protocol: Male rabbits of New Zealand Albino strain, weighing 1.8 to 2.5 kg, are used as experimental animals. Intraocular pressure is measured with an Alcon pneumatic tonometer without local anesthesia, while holding the animal in a cylindrical rabbit holder.
The test compound is dissolved in a physiological solution of NaCl to a concentration of 1% (W/V), and the resulting solution is adjusted to a pH of 6.5 to 7.0 with a 0.01 N aqueous NaOH solution. The solution is instilled to one of the eyes of the animal in an accurate amount of 100 μl with a microsyringe after measuring the intraocular pressure of the eye. The eyelid is held closed for 1 minute after the instillation to prevent the escape of the solution.
The efficacy of the test compound is determined by measuring the intraocular pressure 30 minutes and 1 hour after the instillation and comparing the measurements with the pressure measured before the instillation. A 100 μl quantity of physiological saline containing no test compound is similarly tested on a control group.

[2] = Acute toxicity, oral administration, male rats; details: rat, in vivo
Text: *Determined by the oral administration of Compound C to male rats.

[3] = Acute Toxicity Test, intravenous, mice; type: in vivo; details: mouse, in vivo
Protocol: (§1) Active compounds useful for the glaucoma treating compositions of this invention are intravenously administered to mice to test the compounds for acute toxicity.
(§2) Other active compounds of this invention are also tested for acute toxicity in the same manner as above, i.e., by intravenously administering them to mice. The LD50 values determined are all not lower than about 40 mg/kg.

[4] = tested on: mice; experiment: Acute Toxicity Test, intravenous, mice; type: in vivo
Protocol: as §1, §2

| Compound | Intraocular pressure 30 minutes after instillation, average ([1]; average of animals) | Intraocular pressure 1 hour after instillation, average ([1]; average of animals) | other results |
| --- | --- | --- | --- |
| COc1ccc(CCNCC(O)COc2ccc(NC(C)=O)c3c2CCC(=O)N3)cc1OC (stereo not drawn) [Compound L, 8-Acetylamino-5-[2-hydroxy-3-(β-3,4-dimethoxyphenethylamino)]propoxy-3,4-dihydrocarbostyril hydrochloride] | 18.0 mm Hg | 17.5 mm Hg | Intraocular pressure 30 minutes after instillation ([1]; individual animal): 18 mm Hg |
| COc1ccc(CCNCC(O)COc2ccc(OCC(C)=O)c3c2CCC(=O)N3)cc1OC (stereo not drawn) [Compound C, 8-Methylcarbonylmethoxy-5-[2-hydroxy-3-(β-3,4-dimethoxyphenethylamino)]propoxy-3,4-dihydrocarbostyril oxalate] | 17.0 mm Hg | 17.0 mm Hg | LD50 [2]: 1260 mg/kg |
| COc1ccc(CCNCC(O)COc2ccc(NC(N)=O)c3c2CCC(=O)N3)cc1OC (stereo not drawn) [Compound J, 8-Ureido-5-[2-hydroxy-3-(β-3,4-dimethoxyphenethylamino)]propoxy-3,4-dihydrocarbostyril hydrochloride] | 17.5 mm Hg | 17.0 mm Hg | LD50 [3]: 143 mg/kg |
| C#CCOc1ccc(OCC(O)CNCCc2ccc(OC)c(OC)c2)c2c1NC(=O)CC2.O=C(O)C(=O)O (stereo not drawn) [Compound K, 8-Propynyloxy-5-[2-hydroxy-3-(β-3,4-dimethoxyphenethylamino)]propoxy-3,4-dihydrocarbostyril oxalate] | 18.5 mm Hg | 18.0 mm Hg | Intraocular pressure before instillation, average ([1]; average of animals, baseline): 19.5 mm Hg; Intraocular pressure 30 minutes after instillation ([1]; individual animal): 19 mm Hg and 18 mm Hg; Intraocular pressure 1 hour after instillation ([1]; individual animal): 18 mm Hg; Intraocular pressure before instillation ([1]; individual animal, baseline): 20 mm Hg and 19 mm Hg |
| CCN1C(=O)CCc2c(OCC(O)CNC3CCCCC3)cccc21 (centres unmarked) [Compound H, 1-Ethyl-5-(2-hydroxy-3-cyclohexylamino)propoxy-3,4-dihydrocarbostyril hydrochloride] | 15.5 mm Hg | 15.5 mm Hg |  |
| CC(C)(C)NCC(O)COc1cccc2[nH]c(=O)ccc12 (centres unmarked) [Compound B, 5-(2-Hydroxy-3-tert-butylamino)propoxycarbostyril hydrochloride] | 17.0 mm Hg | 16.5 mm Hg | LD50 [3]: 44.6 mg/kg |
| C=CCN1C(=O)CCc2c(OCC(O)CNC(C)(C)C)cccc21 (centres unmarked) [Compound N, 1-Allyl-5-(2-hydroxy-3-tert-butylamino)propoxy-3,4-dihydrocarbostyril hydrochloride] | 17.5 mm Hg | 16.5 mm Hg |  |
| CC(C)NCC(O)COc1cccc2c1NC(=O)CC2 (centres unmarked) [Compound I, 8-(2-Hydroxy-3-isopropylamino)propoxy-3,4-dihydrocarbostyril hydrochloride] | 16.5 mm Hg | 16.5 mm Hg | LD50 [3]: 81.6 mg/kg |
| O=C1CCc2c(cccc2OCC(O)CNCc2ccccc2)N1 (centres unmarked) [Compound F, 5-(2-Hydroxy-3-benzylamino)propoxy-3,4-dihydrocarbostyril hydrochloride] | 18.5 mm Hg | 18.5 mm Hg |  |
| CCNCC(O)COc1cccc2c1CCC(=O)N2 (centres unmarked) [Compound E, 5-(2-Hydroxy-3-ethylamino)propoxy-3,4-dihydrocarbostyril maleate] | 18.0 mm Hg | 17.0 mm Hg |  |
| CC(C)(C)NCC(O)COc1cccc2c1CCC(=O)N2 (centres unmarked) [Compound A, 5-(2-Hydroxy-3-tert-butylamino)propoxy-3,4-dihydrocarbostyril hydrochloride] | 17.2 mm Hg | 17.4 mm Hg | LD50 [4]: 54.4 mg/kg |
| C=CCOc1ccc(OCC(O)CNC(C)(C)C)c2c1NC(=O)CC2 (centres unmarked) [Compound M, 8-Allyloxy-5-(2-hydroxy-3-tert-butylamino)propoxy-3,4-dihydrocarbostyril hydrochloride] | 19.0 mm Hg | 18.0 mm Hg | Intraocular pressure 30 minutes after instillation ([1]; individual animal): 19 mm Hg; Intraocular pressure 1 hour after instillation ([1]; individual animal): 18 mm Hg |
| O=C1CCc2c(cccc2OCC(O)CNC2CCCCC2)N1 (centres unmarked) [Compound G, 5-(2-Hydroxy-3-cyclohexylamino)propoxy-3,4-dihydrocarbostyril hydrochloride] | 16.5 mm Hg | 16.5 mm Hg |  |
| COc1ccc(CCNCC(O)COc2ccc(O)c3c2CCC(=O)N3)cc1OC (stereo not drawn) [Compound D, 8-Hydroxy-5-[2-hydroxy-3-(β-3,4-dimethoxyphenethylamino)]propoxy-3,4-dihydrocarbostyril hydrochloride] | 17.0 mm Hg | 14.0 mm Hg | Intraocular pressure 30 minutes after instillation ([1]; individual animal): 17 mm Hg |
